Broadly, the IC50 is the concentration at which inhibition is half-maximal. As a reminder, the Kd is the free concentration of one partner at which half of the binding sites on the other are occupied at equilibrium, for simple one-to-one binding.

Consider nine compounds from PMC12148371 (iScience, 2025).

The test system of data set [1] is pseudotyped EBOV. Briefly: microbe, parasite or virus in culture. It is filed as cell-based, Zaire ebolavirus. The following applies: for IC50: read-out: EBOV (IC50).
Data set [2] is described as follows: in vitro. Conditions: human.
Data set [3] has as its system infectious EBOV. Briefly: microbe, parasite or virus in culture. It is filed as cell-based, Ebola Zaire virus. The following applies: Zaire ebolavirus, read-out: Infectious EBOV (IC50).
Data set [4] deals with pseudotyped BDBV. Briefly: microbe, parasite or virus in culture. Conditions: Bundibugyo virus, TZM-bl, read-out: BDBV (IC50). The data set is classed as cell-based, Bundibugyo ebolavirus.
In data set [5] the test system is NPC1 binding to Ebola GP-RBD. More on the design: species or system Ebola virus.
The subject of data set [6] is pseudotyped VSV. The data set is classed as cell-based, vesicular stomatitis virus.
For data set [7], the system named is pseudotyped A-MLV. It is filed as cell-based, amphotropic murine leukemia virus.
The target in data set [8] is GP-RBD-Fc (without the glycan cap and MLD) (Bundibugyo ebolavirus (key resources table); called EBOV in the results). Briefly: BLI; pH 6.1. In general terms: Biolayer interferometry detects binding as a change in optical thickness at a sensor tip.
Data set [9] shares this target. Description: BLI; pH 7.4.

Read-outs that look alike come from different tables or passages of the source.

On to `CNCc1ccc2c(c1)C[C@H](CNC(=N)N)[C@H]2NC(=O)C(=O)Nc1ccc(Cl)c(F)c1` [BNM-III-170], for which the “inhibition potency against EBOV, in words” value in data set [1] is on record as “largely reduced”. In addition, in data set [1] (Zaire ebolavirus, TZM-bl), the IC50 was greater than 30 µM.

For `CC1(C)CC(NC(=O)C(=O)Nc2ccc(C(C)(C)C)cc2)CC(C)(C)N1` [Compd N9], the CC50 in data set [2] was greater than 100 µM. Also, the IC50 in data set [3] worked out at 9.46 µM; in data set [1] (Zaire ebolavirus, TZM-bl), 9.51 ± 1.6 µM; in [4] it was 17.6 ± 2.7 µM.

On to `CC1(C)CC(NC(=O)C(=O)Nc2ccc(C(F)(F)F)c(F)c2)CC(C)(C)N1` [DY-III-226], for which the CC50 in data set [2] came to 48.4 ± 5.4 µM. Also, the IC50 turned out to be 11.1 µM in data set [1] (Zaire ebolavirus, TZM-bl); 11.2 ± 0.8 µM in data set [1]; 10.6 ± 0.5 µM in data set [4].

As to `CC1(C)CC(NC(=O)C(=O)Nc2cc(F)c(Cl)c(F)c2)CC(C)(C)N1` [DY-III-227], in data set [2], the CC50 turned out to be 68.3 ± 4.3 µM. The IC50 worked out at 12.1 µM in data set [1] (Zaire ebolavirus, TZM-bl); 12.5 ± 1.5 µM in data set [1]; 12.1 ± 0.7 µM in data set [4].

As to `CC1(C)CC(NC(=O)C(=O)Nc2ccc(C(C)(C)C)c(F)c2)CC(C)(C)N1` [DY-III-228], in [5], the “NPC1 binding remaining (A488+ cells) in presence of competitor” value (shortened to “NPC1 binding remaining (A488+ cells)”) turned out to be 30.90%. Besides, the CC50 in [2] was 20.6 ± 2.6 µM. In addition, the half-inhibitory concentration (IC50) in data set [3] is 0.56 µM; in [1] (Zaire ebolavirus, TZM-bl), 1.98 ± 0.5 µM; in [4] it was 2.25 ± 0.2 µM.

Take `CC1(C)CC(NC(=O)C(=O)Nc2ccc(Cl)c(F)c2)CC(C)(C)N1` [JRC-II-191]: the “neutralization of pseudotyped VSV” value in [6] was “did not neutralize”. The “neutralization of pseudotyped A-MLV” value in data set [7] is given as “did not neutralize”. For the same compound, in [5], the “NPC1 binding remaining (A488+ cells)” value came out at 24.29%. The same compound came in with a CC50 in [2] of 43.2 ± 6 µM. Besides, the concentration for half-maximal inhibition (IC50) amounted to 5.25 µM in data set [3]; 9.52 ± 1.4 µM in [1] (Zaire ebolavirus, TZM-bl); 9.99 ± 1.1 µM in [4].

Turning to `CC1(C)CC(NC(=O)C(=O)Nc2ccc(Cl)cc2)CC(C)(C)N1` [NBD-556], the “NPC1 binding remaining (A488+ cells)” value in data set [5] is 28.36%. The compound further had a CC50 in data set [2] of 67.7 ± 7.3 µM. Besides, the concentration for half-maximal inhibition (IC50) was 18.8 µM in data set [3]; 18.2 ± 1 µM in [1] (Zaire ebolavirus, TZM-bl); 16.8 ± 2.1 µM in data set [4].

On to `CC1(C)CC(NC(=O)C(=O)Nc2ccc(Br)cc2)CC(C)(C)N1` [NBD-557], for which the 50% inhibitory concentration (IC50) in data set [1] (Zaire ebolavirus, TZM-bl) was 19.8 ± 1.7 µM; in data set [4], 10.6 ± 1.8 µM.

“human soluble CD4-183 (sCD4-183) two-domain protein (domain or fragment)”: the equilibrium dissociation constant (Kd) in data set [8] worked out at 0.36 µM; in data set [9], 52 µM.
